We go through six compounds from US7427591B2, “Suppression of immune response via inhibition of cathepsin S” (Massachusetts Institute of Technology, priority 1996, dated 2008).

For experiment [1], the system named is Ii processing in HOM2 cells. Put plainly: 35S pulse/chase of HOM2 cells, Tu36 immunoprecipitation, SDS-PAGE: Ii processing and SDS-stable class II peptide complexes. To be noted: E64D. The format is cell-based, human. An excerpt:
Lysates were precleared with protein A-agarose.
Samples were eluted with SDS-PAGE sample buffer.

The target of a further experiment is cathepsin D (Homo sapiens, UniProt P07339). The settings on record: Alteri et al. 1993; cited from earlier work.
Another experiment concerns the target cathepsin B (Homo sapiens, UniProt P07858). Put plainly: Active site labeling of cysteine proteases with Cbz-[125I]-Tyr-Ala-CN2 in HOM2 cells: cathepsin B. It counts as cell-based. An excerpt:
SIDS, 1% Triton X-100 on ice.

The next experiment deals with cathepsin S (Homo sapiens, UniProt P25774). Put plainly: Active site labeling of cysteine proteases with Cbz-[125I]-Tyr-Ala-CN2 in HOM2 cells: cathepsin S. The format is cell-based.
The target of another experiment is T1, human cathepsin H (Homo sapiens, UniProt P09668).
T1 construct: purchased Calbiochem-Novabiochem Corp., San Diego, Calif
T1 sequence (P09668 98-335): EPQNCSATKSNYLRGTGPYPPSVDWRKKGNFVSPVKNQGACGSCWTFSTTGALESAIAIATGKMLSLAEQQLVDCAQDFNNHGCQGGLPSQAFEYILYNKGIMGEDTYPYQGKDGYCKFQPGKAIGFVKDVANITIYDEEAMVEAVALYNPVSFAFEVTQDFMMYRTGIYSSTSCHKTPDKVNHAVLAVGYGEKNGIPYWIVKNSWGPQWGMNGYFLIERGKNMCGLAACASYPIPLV
Put plainly: Inhibition of purified human cathepsin H. To be noted: purified enzyme. The format is biochemical. An excerpt: Purified human cathepsin H (obtained from Calbiochem-Novabiochem Corp., San Diego, Calif.) was not inhibited with LHVS nor did it display any proteolytic activity against immunoprecipitated αβIi, implying that cathepsin H is not an essential protease for Ii degradation.

Experiment [2] relates to Ii processing in HOM2 cells. To be noted: leupeptin; Neefjes and Ploegh 1992; cited from earlier work.
A further experiment relates to multiple sclerosis. Put plainly: Treating multiple sclerosis in a human. To be noted: intravenous injection once a day, 500 mg/70 kg body weight.
The subject of the next experiment is pemphigus vulgaris. Put plainly: Treating pemphigus vulgaris in a human. The format is in vivo. To be noted: topical ointment 50 mg/gm, daily. As for the experimental part:
The dose is 50 mg/gm of ointment and is applied daily to the affected area.

cathepsin S, sequence (P25774 115-331): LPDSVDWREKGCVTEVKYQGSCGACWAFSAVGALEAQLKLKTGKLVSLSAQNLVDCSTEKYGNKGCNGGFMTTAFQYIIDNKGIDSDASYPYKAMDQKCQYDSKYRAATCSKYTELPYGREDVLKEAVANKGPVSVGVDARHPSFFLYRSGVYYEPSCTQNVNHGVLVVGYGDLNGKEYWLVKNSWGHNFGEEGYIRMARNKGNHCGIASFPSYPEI
cathepsin D, sequence (P07339 65-412, species assumed): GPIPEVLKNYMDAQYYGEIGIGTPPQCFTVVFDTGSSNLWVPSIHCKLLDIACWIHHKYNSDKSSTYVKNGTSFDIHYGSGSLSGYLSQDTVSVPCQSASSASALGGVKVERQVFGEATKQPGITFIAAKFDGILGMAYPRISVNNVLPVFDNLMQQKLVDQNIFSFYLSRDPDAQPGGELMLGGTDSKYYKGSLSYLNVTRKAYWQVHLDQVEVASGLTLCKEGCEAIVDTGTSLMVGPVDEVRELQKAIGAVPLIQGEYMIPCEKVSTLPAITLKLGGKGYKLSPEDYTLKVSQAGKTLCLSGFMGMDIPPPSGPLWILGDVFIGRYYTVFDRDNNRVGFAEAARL

For `CCOC(=O)[C@H]1O[C@@H]1C(=O)N[C@@H](CC(C)C)C(=O)NCCC(C)C` (relative stereo) [E64D], the SDS-stable dimer formation entry in experiment [1] was “decrease in SDS-stable dimer formation”.

Regarding `CC(C)[C@H](NC(=O)[C@H](Cc1ccccc1)C[C@H](O)[C@H](Cc1ccccc1)NC(=O)OC(C)(C)C)C(=O)N[C@@H](Cc1ccccc1)C(=O)N1CCOCC1` [CGP 53437], the “inhibits cathepsin D (potency range)” value at cathepsin D is given as “nanomolar range”.

Consider `CC(C)C[C@H](NC(=O)N1CCOCC1)C(=O)N[C@H](/C=C/S(=O)(=O)c1ccccc1)CCc1ccccc1` [LHVS, morpholinurea-leucine-homophenylalanine-vinylsulfone phenyl], for which the “labeling of cathepsin B with Cbz-[125I]-Tyr-Ala-CN2” value on cathepsin B (LHVS 1 nM) is reported as “but not cathepsin B”; at cathepsin B (LHVS 5 nM), “decreased, although some activity remained”. Further, at cathepsin S, the “concentrations that specifically inhibit cathepsin S, leaving other cysteine proteases functionally active” value was 1 to 5 nM. For the same compound, the “labeling of cathepsin S with Cbz-[125I]-Tyr-Ala-CN2” value at cathepsin S (LHVS 1 nM, 1 hour preincubation at 37° C.) is recorded as “effectively inhibited”. For the same compound, the “inhibition of purified human cathepsin H” value against human cathepsin H was “not inhibited”.

In the case of `CC(=O)N[C@@H](CC(C)C)C(=O)N[C@@H](CC(C)C)C(=O)N[C@H](C=O)CCCNC(=N)N` [leupeptin], the “SDS-stable complexes (peptide-loaded αβ-dimers)” value in experiment [2] is listed as “decrease”.

For Leu-Arg-Met-vinylsulfone, the “effect on multiple sclerosis” value in the experiment on multiple sclerosis is “alleviates the effects of multiple sclerosis”.

As to N-(carboxybenzyl)-Arg-Met-vinylsulfone, in the experiment with pemphigus vulgaris, the “effect on pemphigus vulgaris” value was “alleviates the effects of pemphigus vulgaris”.
